Results taken from paper PMC9463489 (Journal of Pharmaceutical Analysis, 2022).
Where “and” joins values, the source holds several entries; their conditions need not be identical. Equal entries are not always repeated.

How the values were obtained:
[1] = target: T1, human pancreatic lipase (hPL) (Homo sapiens, UniProt P16233); assay: fluorescence-based hPL inhibition assay; format: biochemical; settings: 4-MUO 5 μM, 37 °C, 20 min; for IC50: pIC50, hPL-catalyzed 4-MUO hydrolysis; for pIC50: hPL-catalyzed 4-MUO hydrolysis
T1 sequence (P16233 17-465): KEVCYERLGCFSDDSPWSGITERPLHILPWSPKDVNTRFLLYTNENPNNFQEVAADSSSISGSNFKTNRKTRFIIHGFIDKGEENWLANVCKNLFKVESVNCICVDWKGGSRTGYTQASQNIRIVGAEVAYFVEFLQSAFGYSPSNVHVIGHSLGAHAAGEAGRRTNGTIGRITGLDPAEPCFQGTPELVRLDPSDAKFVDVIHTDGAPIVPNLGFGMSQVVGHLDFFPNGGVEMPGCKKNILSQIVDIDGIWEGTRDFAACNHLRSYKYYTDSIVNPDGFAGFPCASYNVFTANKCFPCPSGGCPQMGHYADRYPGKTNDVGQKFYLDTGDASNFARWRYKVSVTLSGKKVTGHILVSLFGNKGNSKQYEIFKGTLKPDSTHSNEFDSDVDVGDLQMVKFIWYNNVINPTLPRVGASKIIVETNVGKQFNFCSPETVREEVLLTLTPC

[2] = target: T1, human pancreatic lipase (hPL); assay: inhibition kinetics against hPL-catalyzed 4-MUO hydrolysis; format: biochemical; settings: for Inhibition mode: Lineweaver-Burk and secondary plots
α-glucosidase = settings: ref [50], [51], [52]; cited from earlier work

IC50 [1] [nM] | Molecule | further results
27500 | O=c1c(O)c(-c2ccc(O)cc2)oc2cc(O)cc(O)c12 [Kaempferol, kaempferol] | 
> 100000 | C[C@@H]1O[C@@H](Oc2cc(O)c3c(=O)c(O)c(-c4ccc(O)cc4)oc3c2O)[C@H](O)[C@H](O)[C@H]1O [Rhodionin, rhodionin] | 
> 100000 | O=C(O)/C=C/c1ccc(O)cc1 [p-coumaric acid] | 
 | COc1cc(/C=C/C(=O)O)ccc1O [Ferulic acid, ferulic acid] | pIC50 [1]: <4
 | O=C(O)[C@H]1O[C@@H](Oc2c(-c3ccc(O)c(O)c3)oc3cc(O)cc(O)c3c2=O)[C@H](O)[C@@H](O)[C@@H]1O [Quercetin-3-O-glucuronide, quercetin-3-O-glucuronide] | pIC50 [1]: <4
> 100000 | O=c1c(O[C@@H]2O[C@H](CO)[C@@H](O)[C@H](O)[C@H]2O)c(-c2ccc(O)c(O)c2)oc2cc(O)cc(O)c12 [Quercetin-3-O-glucoside, quercetin-3-O-glucoside] | 
> 100000 | O=C1C[C@@H](c2ccc(O)c(O)c2)Oc2cc(O)cc(O)c21 [Eriodictyol, eriodictyol] | 
 | O=c1cc(-c2ccc(O)c(O)c2)oc2cc(O[C@@H]3O[C@H](CO)[C@@H](O)[C@H](O)[C@H]3O)cc(O)c12 [Luteolin-7-O-β-D-glucoside, luteolin-7-O-β-D-glucoside] | pIC50 [1]: <4
 | catechin gallate [CG] | Inhibition mode [2]: non-competitive
25.7 | O=C(OC[C@H]1O[C@@H](OC(=O)c2cc(O)c(O)c(O)c2)[C@H](OC(=O)c2cc(O)c(O)c(O)c2)[C@@H](OC(=O)c2cc(O)c(O)c(O)c2)[C@@H]1OC(=O)c1cc(O)c(O)c(O)c1)c1cc(O)c(O)c(O)c1 [PGG, 1,2,3,4,6-penta-O-galloyl-β-D-glucopyranose] | Inhibition mode [2]: non-competitive; Ki ([2]; inhibition constant (Ki)): 12 nM and < 100 nM
 | O=c1c(O)c(-c2ccc(O)c(O)c2)oc2cc(O)cc(O)c12 [Quercetin, quercetin] | inhibitory effects against α-glucosidase (α-glucosidase): strong inhibitory effects
776 | O=c1cc(-c2ccc(O)c(O)c2)oc2cc(O)cc(O)c12 [Luteolin, luteolin] | inhibitory effects against α-glucosidase (α-glucosidase): strong inhibitory effects
> 100000 | Oc1cc(O)c2c(c1)O[C@H](c1ccc(O)c(O)c1)[C@H](O)C2 [Epicatechin, epicatechin] | 
162 | O=C(O[C@@H]1Cc2c(O)cc(O)cc2O[C@@H]1c1ccc(O)c(O)c1)c1cc(O)c(O)c(O)c1 [ECG, epicatechin gallate] | inhibitory effects against α-glucosidase (α-glucosidase): strong inhibitory effects
> 100000 | C[C@@H]1O[C@@H](Oc2c(-c3ccc(O)c(O)c3)oc3cc(O)cc(O)c3c2=O)[C@H](O)[C@H](O)[C@H]1O [Quercitrin, quercitrin] | 
